# Patent US20220202824A1, “Methods for Treating Centronuclear Myopathy” (Stemline Therapeutics, Inc., priority 2018, published 2022)
# Where two headings read alike, the source gives them in different places.
# Assays:
# PI3Kβ = PI3Kβ (Homo sapiens, UniProt P42338); conditions: literature value; read-out: IC50 for other PI3Ks: PI3Kβ; cited from earlier work
# PIK3C2B = PIK3C2B (Homo sapiens, UniProt O00750); conditions: cited from earlier work; for IC50: read-out: IC50 for PIK3C2B
# 395 kinases = assay: KINOMEscan competitive binding profiling assay of 395 kinases (Ambit Biosciences); conditions: single concentration 10 μM
# Description: Initially, 3-{[(3S)-4-(6,6-dimethyl-4-oxo-4,5,6,7-tetrahydro[1,3]thiazolo[5,4-c]pyridin-2-yl)morpholin-3-yl]methyl}-N,N,1-trimethyl-1H-indole-5-carboxamide (referred as Test Compound here in Example 2) was screened against kinase targets representing diverse protein kinase family members for competitive binding using a commercially available profiling assay of 395 kinases (Ambit Biosciences, KINOMEscan), and the compound was found most likely to inhibit the kinase activity of PI3Ks compared to other kinases.
# PIK3C2A (PI3K-C2 alpha) = PIK3C2A (PI3K-C2 alpha) (Homo sapiens, UniProt O00443); assay: SelectScreen Adapta universal kinase assay, PIK3C2A; format: biochemical; conditions: [ATP] 10 uM; for inhibition at 0.00101 µM / inhibition at 0.00303 µM / inhibition at 0.0091 µM / inhibition at 0.0273 µM / inhibition at 0.082 µM / inhibition at 0.247 µM / inhibition at 0.741 µM / inhibition at 2.222 µM / inhibition at 6.667 µM / inhibition at 20 µM: PIK3C2A; for inhibition at 0.00101 µM: Test Compound 1.01 nM; for inhibition at 0.00303 µM: Test Compound 3.03 nM; for inhibition at 0.0091 µM: Test Compound 9.1 nM; for inhibition at 0.0273 µM: Test Compound 27.3 nM; for inhibition at 0.082 µM: Test Compound 82 nM; for inhibition at 0.247 µM: Test Compound 247 nM; for inhibition at 0.741 µM: Test Compound 741 nM; for inhibition at 2.222 µM: Test Compound 2222 nM; for inhibition at 6.667 µM: Test Compound 6667 nM; for inhibition at 20 µM: Test Compound 20000 nM
# PIK3C2A (PI3K-C2 alpha), sequence (O00443 whole entry): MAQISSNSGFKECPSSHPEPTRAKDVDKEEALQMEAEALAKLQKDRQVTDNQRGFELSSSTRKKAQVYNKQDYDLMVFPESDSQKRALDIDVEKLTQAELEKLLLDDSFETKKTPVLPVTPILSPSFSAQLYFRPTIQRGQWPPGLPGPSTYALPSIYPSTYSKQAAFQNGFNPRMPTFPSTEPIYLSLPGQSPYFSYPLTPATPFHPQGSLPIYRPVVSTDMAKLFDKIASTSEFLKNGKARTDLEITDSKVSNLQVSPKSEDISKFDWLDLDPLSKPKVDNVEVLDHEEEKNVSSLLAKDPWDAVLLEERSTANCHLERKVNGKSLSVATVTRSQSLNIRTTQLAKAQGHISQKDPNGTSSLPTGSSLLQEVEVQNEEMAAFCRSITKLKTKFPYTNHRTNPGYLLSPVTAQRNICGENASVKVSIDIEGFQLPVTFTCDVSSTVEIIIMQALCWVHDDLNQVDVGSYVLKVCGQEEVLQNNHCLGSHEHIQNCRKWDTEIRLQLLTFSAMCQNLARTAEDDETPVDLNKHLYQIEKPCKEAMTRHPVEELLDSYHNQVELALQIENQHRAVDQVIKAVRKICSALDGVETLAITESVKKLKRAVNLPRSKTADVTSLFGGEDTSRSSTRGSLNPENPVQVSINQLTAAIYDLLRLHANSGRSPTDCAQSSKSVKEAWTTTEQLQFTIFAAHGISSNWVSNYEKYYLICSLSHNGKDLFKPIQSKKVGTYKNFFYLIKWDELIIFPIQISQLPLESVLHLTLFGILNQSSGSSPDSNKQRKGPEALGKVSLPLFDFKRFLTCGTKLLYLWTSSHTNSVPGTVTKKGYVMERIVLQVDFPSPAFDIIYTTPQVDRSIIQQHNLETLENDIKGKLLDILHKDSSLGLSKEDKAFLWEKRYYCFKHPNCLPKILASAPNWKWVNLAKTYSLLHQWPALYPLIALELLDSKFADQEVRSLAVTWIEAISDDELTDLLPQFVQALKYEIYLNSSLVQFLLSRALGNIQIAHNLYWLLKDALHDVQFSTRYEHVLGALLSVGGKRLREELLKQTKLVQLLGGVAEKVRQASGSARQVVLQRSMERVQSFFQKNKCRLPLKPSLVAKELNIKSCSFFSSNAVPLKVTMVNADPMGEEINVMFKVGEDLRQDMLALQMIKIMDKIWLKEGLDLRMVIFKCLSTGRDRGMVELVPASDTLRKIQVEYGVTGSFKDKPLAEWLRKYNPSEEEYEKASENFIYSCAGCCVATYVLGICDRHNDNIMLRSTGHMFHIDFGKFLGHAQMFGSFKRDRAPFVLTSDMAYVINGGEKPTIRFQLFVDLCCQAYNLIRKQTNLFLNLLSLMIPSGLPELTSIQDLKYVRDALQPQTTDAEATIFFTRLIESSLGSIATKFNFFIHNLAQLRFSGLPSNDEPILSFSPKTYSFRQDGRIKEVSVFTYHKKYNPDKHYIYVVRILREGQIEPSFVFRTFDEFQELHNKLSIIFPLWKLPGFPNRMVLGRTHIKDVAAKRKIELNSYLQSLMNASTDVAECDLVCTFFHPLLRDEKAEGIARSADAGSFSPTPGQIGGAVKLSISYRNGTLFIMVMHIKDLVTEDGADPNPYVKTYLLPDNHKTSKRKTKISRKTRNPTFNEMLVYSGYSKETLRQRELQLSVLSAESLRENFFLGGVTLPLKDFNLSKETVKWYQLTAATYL
# Procedure: (§1) Kinase activities of PIK3C2B (and PIK3C2A for comparison) were obtained using the SelectScreen™ Profiling Service (Invitrogen) based on Adapta™ universal kinase assay protocol and conditions (Invitrogen Corporation, Cat. No. PV5099).
# (§2) Adapta™ universal kinase assay: The assay itself can be divided into two phases: a kinase reaction phase, and an ADP detection phase. In the kinase reaction phase, all components required for the kinase reaction are added to the well, and the reaction is allowed to incubate for 60 minutes. After the reaction, a detection solution consisting of a europium labeled anti-ADP antibody, an Alexa Fluor™ 647 labeled ADP tracer, and EDTA (to stop the kinase reaction) is added to the assay well. ADP formed by the kinase reaction (in the absence of an inhibitor) displaces the Alexa Fluor® 647 labeled ADP tracer from the antibody, resulting in a decrease in the TR-FRET signal. In the presence of an inhibitor, the amount of ADP formed by the kinase reaction is reduced, and the resulting intact antibody-tracer interaction results in a high TR-FRET signal. ADP formation is determined by calculating the emission ratio from the assay well.
# (§3) The emission ratio is calculated by dividing the intensity of the tracer (acceptor) emission by the intensity of the Eu (donor) emission at 615 nm as shown in the equation below. Emission Ratio=AlexaFluor™647 Emission (665 nm)/Europium Emission (615 nm).
# (§4) The Test Compound was screened in 1% DMSO (final solution). For 10-point titrations, 3-fold serial dilutions were conducted from the starting concentrations of 20,000 nM for PIK3C2A and 1,000 nM for PIK3C2B.
# (§5) For PIK3C2A (PI3K-C2 alpha), the 2×PIK3C2A (PI3K-C2 alpha)/PI mixture was prepared in a Kinase Buffer including 00 mM HEPES pH 7.5, 200 mM NaCl, 0.06% CHAPS, 6 mM MgCl2, 2 mM EGTA. The final 10 μL Kinase Reaction has 8 ng PIK3C2A (PI3K-C2 alpha) and 100 μM PI in 57.5 mM HEPES pH 7.5, 100 mM NaCl, 0.03% CHAPS, 3 mM MgCl2, 1 mM EGTA. After the 1 hour Kinase Reaction incubation, 5 μL of Detection Mix was added.
# (§6) All ATP Solutions were diluted to a 4× working concentration in water. ATP Km (apparent) was previously determined using a radiometric assay except when no substrate is available in which case an Adapta™ assay was conducted.
# (§7) The Detection Mix was prepared in TR-FRET Dilution Buffer. The Detection mix consists of EDTA (30 mM), Eu-anti-ADP antibody (30 nM) and ADP tracer. The detection mix contains the EC60 concentration of tracer for 5-100 μM ATP.
# (§8) Adapta™ assay protocol: 2.5 μL 4× Test Compound or 100 nL 100× plus 2.4 μL kinase buffer was dispensed onto white 384-well small volume polystyrene plate (Corning, Cat. No. 3674). Then 2.5 μL of 4×ATP Solution followed by 5 μL of 2× Substrate/Kinase Mixture were added. The final 10 μL Kinase Reaction has 8 ng PIK3C2B (PI3K-C2 beta) and 100 μM PI in 57.5 mM HEPES pH 7.5, 100 mM NaCl, 0.03% CHAPS, 3 mM MgCl2, 1 mM EGTA After 30 seconds plate shake and 2-minutes centrifugation at 1000×g for 2 minutes, Kinase Reaction incubation was performed at room temperature for 60 minutes.
# (§9) After the Kinase Reaction incubation, 5 μL of Detection Mix was added. After 30 seconds plate shake and 2-minutes centrifugation at 1000×g for 2 minutes, Detection Mix equilibration incubation was performed at room temperature for 60 minutes.
# (§10) Adapta™ data analysis: The fluorescent data obtained was analyzed using a data fitting program, XLfit (ID Business Solutions, Guildford, UK). IC50 values were derived by fitting a sigmoidal dose-response curve to a plot of assay readout over inhibitor concentration.
# PIK3C2B (PI3K-C2 beta) = PIK3C2B (PI3K-C2 beta) (Homo sapiens, UniProt O00750); assay: SelectScreen Adapta universal kinase assay, PIK3C2B; format: biochemical; conditions: for inhibition at 51 pM / inhibition at 0.000153 µM / inhibition at 0.00046 µM / inhibition at 0.00137 µM / inhibition at 0.0041 µM / inhibition at 0.0123 µM / inhibition at 0.037 µM / inhibition at 0.111 µM / inhibition at 0.333 µM / inhibition at 1 µM: PIK3C2B; for inhibition at 51 pM: Test Compound 0.051 nM; for inhibition at 0.000153 µM: Test Compound 0.153 nM; for inhibition at 0.00046 µM: Test Compound 0.46 nM; for inhibition at 0.00137 µM: Test Compound 1.37 nM; for inhibition at 0.0041 µM: Test Compound 4.1 nM; for inhibition at 0.0123 µM: Test Compound 12.3 nM; for inhibition at 0.037 µM: Test Compound 37 nM; for inhibition at 0.111 µM: Test Compound 111 nM; for inhibition at 0.333 µM: Test Compound 333 nM; for inhibition at 1 µM: Test Compound 1000 nM
# PIK3C2B (PI3K-C2 beta), sequence (O00750 whole entry): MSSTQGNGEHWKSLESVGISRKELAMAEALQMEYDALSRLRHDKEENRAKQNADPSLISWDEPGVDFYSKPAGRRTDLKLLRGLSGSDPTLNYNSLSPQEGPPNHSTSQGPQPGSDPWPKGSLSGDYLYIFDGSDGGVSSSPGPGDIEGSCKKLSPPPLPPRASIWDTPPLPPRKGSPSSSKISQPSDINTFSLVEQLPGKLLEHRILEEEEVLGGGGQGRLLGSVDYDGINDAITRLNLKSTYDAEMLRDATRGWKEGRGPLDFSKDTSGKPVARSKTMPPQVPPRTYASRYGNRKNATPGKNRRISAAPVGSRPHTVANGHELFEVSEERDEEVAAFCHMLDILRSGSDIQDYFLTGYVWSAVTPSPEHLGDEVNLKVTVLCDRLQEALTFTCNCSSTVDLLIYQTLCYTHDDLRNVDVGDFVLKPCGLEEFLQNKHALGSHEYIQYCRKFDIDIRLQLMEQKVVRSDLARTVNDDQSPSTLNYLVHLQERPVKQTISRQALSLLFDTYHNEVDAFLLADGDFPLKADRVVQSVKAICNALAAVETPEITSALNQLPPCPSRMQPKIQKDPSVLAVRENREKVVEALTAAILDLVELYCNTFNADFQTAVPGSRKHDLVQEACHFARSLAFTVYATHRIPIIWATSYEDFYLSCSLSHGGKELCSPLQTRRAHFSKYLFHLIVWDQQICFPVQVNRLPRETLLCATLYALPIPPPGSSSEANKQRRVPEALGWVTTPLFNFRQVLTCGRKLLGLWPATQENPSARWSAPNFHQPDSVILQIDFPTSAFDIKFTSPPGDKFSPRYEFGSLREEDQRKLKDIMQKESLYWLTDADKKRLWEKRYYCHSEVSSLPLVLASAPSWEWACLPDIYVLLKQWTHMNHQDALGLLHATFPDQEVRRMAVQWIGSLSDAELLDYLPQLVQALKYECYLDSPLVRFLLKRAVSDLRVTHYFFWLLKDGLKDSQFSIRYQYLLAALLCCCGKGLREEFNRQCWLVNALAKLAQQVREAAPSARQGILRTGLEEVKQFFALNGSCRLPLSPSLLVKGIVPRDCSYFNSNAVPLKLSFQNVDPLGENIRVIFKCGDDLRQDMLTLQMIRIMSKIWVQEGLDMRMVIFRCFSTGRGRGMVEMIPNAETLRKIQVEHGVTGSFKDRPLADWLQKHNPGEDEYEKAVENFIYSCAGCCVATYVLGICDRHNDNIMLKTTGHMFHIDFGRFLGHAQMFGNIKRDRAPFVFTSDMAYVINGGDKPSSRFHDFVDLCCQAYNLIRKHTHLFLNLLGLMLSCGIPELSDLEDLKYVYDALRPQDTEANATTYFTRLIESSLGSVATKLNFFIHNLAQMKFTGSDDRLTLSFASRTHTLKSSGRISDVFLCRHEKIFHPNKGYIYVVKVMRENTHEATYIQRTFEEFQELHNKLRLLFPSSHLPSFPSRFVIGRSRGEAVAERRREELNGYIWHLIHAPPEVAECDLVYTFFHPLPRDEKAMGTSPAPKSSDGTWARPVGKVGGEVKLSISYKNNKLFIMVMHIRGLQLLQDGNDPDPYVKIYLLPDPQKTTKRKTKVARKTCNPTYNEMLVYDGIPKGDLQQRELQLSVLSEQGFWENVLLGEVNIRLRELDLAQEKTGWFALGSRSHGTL
# Procedure: as §1, §2, §3, §4
# as §5, with “PIK3C2B” for “PIK3C2A”, “beta),” for “alpha),”, “2×PIK3C2B” for “2×PIK3C2A”, “beta)/PI” for “alpha)/PI”, “100” for “a Kinase Buffer including 00”, “beta)” for “alpha)”
# as §6, §7, §8, §9, §10
# [1] = [ATP] 10 uM, read-out: % Inhibition point 1
# [2] = [ATP] 10 uM, read-out: % Inhibition point 2
# PIK3C2B, sequence (O00750 whole entry): as above
smiles,measurement,setting,value
Cc1c(Cn2c(C)nc(=O)c3sc(N4CCOCC4)nc32)cccc1C(F)(F)F,IC50,PI3Kβ,0.006 µM
same,selectivity in favor of PI3Kβ (Class I),PIK3C2B; PI3Kβ over PIK3C2B,"166-fold selectivity in favor of PI3Kβ (Class I) (Lin et al. ACS Med. Chem. Lett. 2012, 3, 524-529)"
same,IC50,PIK3C2B; literature value,1 µM
"CN(C)C(=O)c1ccc2c(c1)c(C[C@H]1COCCN1c1nc3c(s1)C(=O)NC(C)(C)C3)cn2C [Test Compound, 3-{[(3S)-4-(6,6-dimethyl-4-oxo-4,5,6,7-tetrahydro[1,3]thiazolo[5,4-c]pyridin-2-yl)morpholin-3-yl]methyl}-N,N,1-trimethyl-1H-indole-5-carboxamide]",hits in kinase binding screen,395 kinases,no hits other than PI3Ks
same,inhibition at 0.00101 µM,PIK3C2A (PI3K-C2 alpha); read-out: % Inhibition point 1,25%
same,inhibition at 0.00101 µM,PIK3C2A (PI3K-C2 alpha); read-out: % Inhibition point 2,-12%
same,inhibition at 0.00303 µM,PIK3C2A (PI3K-C2 alpha); read-out: % Inhibition point 1,-24%
same,inhibition at 0.00303 µM,PIK3C2A (PI3K-C2 alpha); read-out: % Inhibition point 2,3%
same,inhibition at 0.0091 µM,PIK3C2A (PI3K-C2 alpha); read-out: % Inhibition point 1,-3%
same,inhibition at 0.0091 µM,PIK3C2A (PI3K-C2 alpha); read-out: % Inhibition point 2,16%
same,inhibition at 0.0273 µM,PIK3C2A (PI3K-C2 alpha); read-out: % Inhibition point 1,13%
same,inhibition at 0.0273 µM,PIK3C2A (PI3K-C2 alpha); read-out: % Inhibition point 2,-4%
same,inhibition at 0.082 µM,PIK3C2A (PI3K-C2 alpha); read-out: % Inhibition point 1,0%
same,inhibition at 0.082 µM,PIK3C2A (PI3K-C2 alpha); read-out: % Inhibition point 2,11%
same,inhibition at 0.247 µM,PIK3C2A (PI3K-C2 alpha); read-out: % Inhibition point 1,15%
same,inhibition at 0.247 µM,PIK3C2A (PI3K-C2 alpha); read-out: % Inhibition point 2,6%
same,inhibition at 0.741 µM,PIK3C2A (PI3K-C2 alpha); read-out: % Inhibition point 1,17%
same,inhibition at 0.741 µM,PIK3C2A (PI3K-C2 alpha); read-out: % Inhibition point 2,30%
same,inhibition at 2.222 µM,PIK3C2A (PI3K-C2 alpha); read-out: % Inhibition point 1,46%
same,inhibition at 2.222 µM,PIK3C2A (PI3K-C2 alpha); read-out: % Inhibition point 2,36%
same,inhibition at 6.667 µM,PIK3C2A (PI3K-C2 alpha); read-out: % Inhibition point 1,55%
same,inhibition at 6.667 µM,PIK3C2A (PI3K-C2 alpha); read-out: % Inhibition point 2,46%
same,inhibition at 20 µM,PIK3C2A (PI3K-C2 alpha); read-out: % Inhibition point 1,81%
same,inhibition at 20 µM,PIK3C2A (PI3K-C2 alpha); read-out: % Inhibition point 2,78%
same,IC50,PIK3C2A (PI3K-C2 alpha),4.3 µM
same,selectivity over C2A (Class II isoform),PIK3C2B (PI3K-C2 beta); PIK3C2B vs PIK3C2A IC50,449-fold selectivity over
same,inhibition at 51 pM,PIK3C2B (PI3K-C2 beta); [1],16%
same,inhibition at 51 pM,PIK3C2B (PI3K-C2 beta); [2],17%
same,inhibition at 0.000153 µM,PIK3C2B (PI3K-C2 beta); [1],-3%
same,inhibition at 0.000153 µM,PIK3C2B (PI3K-C2 beta); [2],8%
same,inhibition at 0.00046 µM,PIK3C2B (PI3K-C2 beta); [1],10%
same,inhibition at 0.00046 µM,PIK3C2B (PI3K-C2 beta); [2],21%
same,inhibition at 0.00137 µM,PIK3C2B (PI3K-C2 beta); [1],21%
same,inhibition at 0.00137 µM,PIK3C2B (PI3K-C2 beta); [2],33%
same,inhibition at 0.0041 µM,PIK3C2B (PI3K-C2 beta); [1],58%
same,inhibition at 0.0041 µM,PIK3C2B (PI3K-C2 beta); [2],27%
same,inhibition at 0.0123 µM,PIK3C2B (PI3K-C2 beta); [1],61%
same,inhibition at 0.0123 µM,PIK3C2B (PI3K-C2 beta); [2],49%
same,inhibition at 0.037 µM,PIK3C2B (PI3K-C2 beta); [1],74%
same,inhibition at 0.037 µM,PIK3C2B (PI3K-C2 beta); [2],82%
same,inhibition at 0.111 µM,PIK3C2B (PI3K-C2 beta); [1],92%
same,inhibition at 0.111 µM,PIK3C2B (PI3K-C2 beta); [2],90%
same,inhibition at 0.333 µM,PIK3C2B (PI3K-C2 beta); [1],94%
same,inhibition at 0.333 µM,PIK3C2B (PI3K-C2 beta); [2],93%
same,inhibition at 1 µM,PIK3C2B (PI3K-C2 beta); [1],93%
same,inhibition at 1 µM,PIK3C2B (PI3K-C2 beta); [2],95%
same,IC50,PIK3C2B (PI3K-C2 beta); [ATP] 10 uM,0.00957 µM
CC[C@H](Nc1ncnc2[nH]cnc12)c1nc2cccc(F)c2c(=O)n1-c1ccccc1,IC50,PIK3C2B,1 µM
